Measurements reported in patent publication US12606595B2, “Regentide-041 and composition comprising Regentide-041 for improving skin condition” (NINEBIOPHARM CO., LTD., priority 2020, dated 2026).
Where a SMILES comes first, the peptide text is derived from it.

Biological target: T1, Neutrophil Elastase (Homo sapiens, UniProt P08246)
T1 construct: purchased Enzo Life Science BML-AK497-001
T1 sequence (P08246 30-267): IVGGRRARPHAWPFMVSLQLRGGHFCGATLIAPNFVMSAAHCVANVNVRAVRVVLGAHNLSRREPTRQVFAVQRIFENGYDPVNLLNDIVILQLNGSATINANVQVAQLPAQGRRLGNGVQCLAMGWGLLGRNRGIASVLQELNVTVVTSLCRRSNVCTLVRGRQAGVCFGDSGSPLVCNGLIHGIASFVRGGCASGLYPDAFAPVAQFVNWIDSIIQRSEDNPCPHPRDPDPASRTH
Assay: Elastase activity inhibitory ability, Neutrophil Elastase colorimetric method
Type: biochemical
Experimental: In order to confirm the elastase activity inhibitory ability of Regentide-041, it was measured using the Neutrophil Elastase colorimetric method (BML-AK497-001, Enzo Life Science, Pennsylvania, USA). Specifically, after an assay buffer and D.W. were diluted at 1:1, an elastase reagent and a substrate reagent were diluted to have final concentrations of 2.2 μU/μl and 100 μM, respectively. In addition, Regentide-041 was diluted to have final concentrations of 0.1, 1, 10, 50, 100, and 150 μM, respectively. A working solution was prepared by mixing the assay buffer, elastase reagent, and Regentide-041 diluent. […] of the working solution was put in each well of a 96-well plate and reacted at 37° C. for 5 minutes. Next, […] of the substrate reagent was put, and absorbance was measured for 15 minutes at absorbance 405 nm with a Microplate reader (Epoch 2 Microplate spectrophotometer. Biotek, Winooski, VT, USA).

CC[C@H](C)[C@H](NC(=O)CNC(=O)CNC(=O)[C@H](CCCNC(=N)N)NC(=O)[C@@H]1CCCN1C(=O)[C@@H](NC(=O)[C@@H](N)CS)[C@@H](C)CC)C(=O)N[C@@H](CS)C(=O)N[C@@H](CC(C)C)C(=O)N[C@H](C(=O)N[C@@H](C)C(=O)N[C@@H](CC(C)C)C(N)=O)C(C)C [Regentide-041, CIPRGGICLVAL-NH2] (H-CIPRGGICLVAL-NH2) gave an inhibition at 150 µM of 52.7 ± 1.2%.
